Some test systems named below: HCC-2998 colon; HCT-116 colon; OVCAR-3 ovarian; SK-MEL-28 melanoma; UO-31 renal; HS 578T breast; MDA-MB-231 breast; PC-3 prostate; SK-MEL-5 melanoma; SR leukemia; BT-549 breast.
Common to all, as to test: growth of human tumour cells (NCI), 48 h

SMILES strings stand for the structures. Where “and” joins values, the source holds several entries; their conditions need not be identical. Equal values may be shown once.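 These data come from cells grown in 96-well plates and exposed to compound for 48 hours at five concentrations. Abbreviation: GI50, concentration required for 50% inhibition of growth. Definition used: TGI = concentration required for complete inhibition of growth.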

With `CC(C)c1cccc(C(C)C)c1NC(=O)C(=O)Cc1nc2ccc([N+](=O)[O-])cc2[nH]c1=O`, the TGI in the assay on HCC-2998 colon, in the assay on HCT-116 colon, in the assay with OVCAR-3 ovarian, in the assay on SK-MEL-28 melanoma and with UO-31 renal was greater than 100 µM throughout.

As to `CC(=O)OI1NC(=O)c2ccccc21`, the TGI in the assay with HCT-116 colon, in the assay on HS 578T breast, in the assay on MDA-MB-231 breast, in the assay on OVCAR-3 ovarian, in the assay on PC-3 prostate and in the assay with SK-MEL-28 melanoma was greater than 100 µM throughout. In addition, the TGI in the assay on SK-MEL-5 melanoma, in the assay with SR leukemia and with UO-31 renal was greater than 100 µM in each case.

In the case of `Clc1ccc(Cl)c(N=Nc2cc3c4c(c2)CCN4CCC3)c1`, the TGI with HCC-2998 colon, in the assay on HCT-116 colon, with HS 578T breast, in the assay on MDA-MB-231 breast, with OVCAR-3 ovarian and in the assay on PC-3 prostate was greater than 10 µM in each case. The TGI with SK-MEL-28 melanoma, in the assay on SK-MEL-5 melanoma, with SR leukemia and in the assay with UO-31 renal was greater than 10 µM each time.

For `CCS(=O)C(=O)N(O)c1ccc(Cl)cc1` (configuration not stated), the TGI in the assay with HCC-2998 colon, in the assay on HCT-116 colon, in the assay on HS 578T breast, with MDA-MB-231 breast, in the assay with OVCAR-3 ovarian and in the assay with PC-3 prostate was greater than 100 µM throughout. In addition, the TGI is 35.6 µM with SK-MEL-28 melanoma, 74.1 µM in the assay with SK-MEL-5 melanoma and 46.7 µM in the assay on UO-31 renal.

As to `COC(=O)c1ccc2c(c1)CC1(C2)Cc2cc3c(cc2C1)CCC3`, the TGI in the assay with HCC-2998 colon, in the assay with HCT-116 colon, with HS 578T breast, with MDA-MB-231 breast, in the assay with OVCAR-3 ovarian and in the assay with PC-3 prostate was greater than 100 µM throughout. Also, the TGI in the assay with SK-MEL-28 melanoma, in the assay on SK-MEL-5 melanoma, in the assay with SR leukemia and with UO-31 renal was greater than 100 µM throughout.

Take `CSc1ncnc2c1cnn2Cc1cnnn1COCC(O)CO` (configuration not stated): the TGI in the assay on BT-549 breast, in the assay with HCC-2998 colon, in the assay on HCT-116 colon, in the assay on MDA-MB-231 breast, in the assay with OVCAR-3 ovarian and in the assay on PC-3 prostate was greater than 100 µM each time. In addition, the TGI in the assay with SK-MEL-28 melanoma, in the assay with SK-MEL-5 melanoma, in the assay on SR leukemia and with UO-31 renal was greater than 100 µM in each case.

For `CC1=CC2C(C=C1)S(=O)(=O)N1CC21c1ccccc1` (configuration not stated), the TGI in the assay with HCC-2998 colon, with HCT-116 colon, with OVCAR-3 ovarian, in the assay on SK-MEL-28 melanoma, in the assay on SK-MEL-5 melanoma and with SR leukemia was greater than 100 µM throughout. This compound gave a TGI in the assay on UO-31 renal greater than 100 µM.

As to `CC(C)N(C(=O)C12C3C4C1C1C2C3C41C#N)C(C)C` (configuration not stated), the TGI in the assay with HCC-2998 colon was greater than 100 µM; with HCT-116 colon, greater than 100 µM; in the assay with OVCAR-3 ovarian it was greater than 100 µM; in the assay with SK-MEL-28 melanoma, greater than 100 µM; in the assay with SK-MEL-5 melanoma, greater than 100 µM; in the assay with SR leukemia it was 45 µM. For the same compound, the TGI in the assay on UO-31 renal was greater than 100 µM.

Consider `CC(=O)Nc1[nH]n(C)c(=O)c1-c1nnc(C)s1`, for which the TGI in the assay with HCC-2998 colon, in the assay on HCT-116 colon, in the assay with OVCAR-3 ovarian, with SK-MEL-28 melanoma, with SK-MEL-5 melanoma and in the assay with SR leukemia was greater than 100 µM throughout. Further, the TGI with UO-31 renal was greater than 100 µM.

With `COc1cc2c(c(OC)c1OC)-c1ccc(SC)c(=O)cc1[C@@H](NCc1ccc(F)cc1)CC2`, the TGI in the assay on HCC-2998 colon was 11.3 µM; in the assay on HCT-116 colon, 0.079 µM; with OVCAR-3 ovarian, less than 0.0075 µM; with SK-MEL-28 melanoma, 75 µM; with SR leukemia, 12.8 µM; with UO-31 renal it was 75 µM and 95.9 µM. Moreover, the GI50 in the assay with UO-31 renal was less than 0.0075 µM.

Consider `C=CCCC1(O)C(O)C(CO)O[C@H](O[C@@]2(CO)OC(CO)C(O)C2O)C1O` (some centres not stated), for which the TGI in the assay on BT-549 breast, with HCT-116 colon, with MDA-MB-231 breast, in the assay with PC-3 prostate, with SK-MEL-28 melanoma and in the assay with SK-MEL-5 melanoma was greater than 100 µM in each case. The compound further returned a TGI with SR leukemia greater than 100 µM.

`CCOC1=C2N=C(C(CC)c3ccccc3F)N=C2C(=O)c2ccccc21` (configuration not stated): the TGI in the assay with HCC-2998 colon, in the assay with HCT-116 colon, in the assay with OVCAR-3 ovarian, in the assay with SK-MEL-28 melanoma, in the assay on SR leukemia and in the assay with UO-31 renal was greater than 100 µM in each case.

Turning to `O=Cc1c[nH]c2c(=O)[nH]cnc12`, the TGI in the assay with HCC-2998 colon, in the assay with HCT-116 colon, in the assay on OVCAR-3 ovarian, in the assay with SK-MEL-28 melanoma, with SK-MEL-5 melanoma and in the assay with SR leukemia was greater than 100 µM in each case. The TGI in the assay with UO-31 renal is greater than 100 µM.

For the compound `CC(C)(C)N=CN1C=Cc2nc3ccccc3cc2C1`, the TGI in the assay with HCC-2998 colon, in the assay on HCT-116 colon, in the assay on OVCAR-3 ovarian, in the assay on SK-MEL-28 melanoma, with SK-MEL-5 melanoma and in the assay on SR leukemia was greater than 100 µM each time. Besides, in the assay with UO-31 renal, the TGI was greater than 100 µM.

With `COCC(C)(C)N=CN1Cc2cc3ccccc3nc2C1`, the TGI in the assay on HCT-116 colon, in the assay with OVCAR-3 ovarian, in the assay with SK-MEL-28 melanoma, in the assay on SK-MEL-5 melanoma, with SR leukemia and in the assay with UO-31 renal was greater than 100 µM in each case.

With `COc1ccc2[nH]c3c(c2c1)[C@H](c1ccccc1)C[C@@H]1C(=O)N(c2ccccc2)C(=O)[C@H]31`, the TGI in the assay on HCC-2998 colon was greater than 100 µM; with HCT-116 colon, 19 µM; in the assay on OVCAR-3 ovarian it was 45.6 µM; in the assay with SK-MEL-28 melanoma, greater than 100 µM; in the assay with SK-MEL-5 melanoma, greater than 100 µM; with SR leukemia it was 76.4 µM. The TGI with UO-31 renal turned out to be 52.3 µM.

As for `CN(C)CCNc1ccc2ncn3c4ccccc4c(=O)c1c23`, the TGI is 12 µM in the assay on HCT-116 colon; greater than 100 µM in the assay on OVCAR-3 ovarian; 15.2 µM in the assay on SK-MEL-28 melanoma; 11.5 µM in the assay on SK-MEL-5 melanoma; greater than 100 µM with SR leukemia; 17.5 µM in the assay with UO-31 renal.

Values taken from PubChem BioAssay (NCI).
